{
  "source": "patent US8609655B2",
  "about": "“Calcimimetic compound for use in the treatment of epithelial injury” (Amgen Inc., priority 2008, dated 2013)",
  "key": {"colonic crypts": {"tested_on": "colonic crypts", "test": "Ischemic injury (100% N2) and intracellular calcium in colonic crypts", "assay_type": "cell-based", "conditions": "5 min prepulse with 100 nM compound A; rat colonic crypts"}, "ileal villi": {"tested_on": "ileal villi", "test": "Ischemic injury and Trypan Blue exclusion in ileal villi", "assay_type": "cell-based, rat", "conditions": "5 min of 100 nM compound A; 30 min 100% N2; without calcimimetic greater than 60% uptake", "protocol": "Individual villi were transferred to the stage of an inverted microscope where they were perfused with 37° C. HEPES Ringer solution that was bubbled with 100% O2. After the 5 minute equilibration period villi were exposed to a HEPES Ringer solution that had been bubbled with 100% N2. In one series Trypan Blue a non membrane permeant dye used for assessment of membrane integrity was added to the bath (0.1 mM Trypan Blue concentration dissolved directly into the bath solution, either 100% O2 or 100% N2). Images were then recorded at sequential time points using DIC optics at 60× Magnification using a Cooled CCD camera and Metafluor Image acquisition and analysis software. Final data was acquired at 30 min from start of perfusion for all groups. The number of Trypan blue positive cells were counted and a number recorded for each villi under each condition. After 30 minutes of exposure to each experimental solution the number of Trypan Blue positive cells was recorded from a blinded observer. The final number of positive cells for each villi was recorded. The data for each villi with a minimum of 7 cells per villi were then pooled and recorded. A numeric mean was then given for the summation of all the cellular data from each villi and from each animal. For the studies presented there were 7 cells per villi, 5 villi per animal and 5 animals in each group. […]"}, "isolated ileal villi": {"tested_on": "isolated ileal villi", "test": "Ischemic injury (100% N2) and intracellular calcium (FLUO-4) in isolated ileal villi", "assay_type": "cell-based", "conditions": "5 min exposure to 100 nM compound A; rat ileal villi; without calcimimetic sustained increase greater than 200% of initial value", "protocol": "Male (Casr^+/+;Gcm2^−/−) or CaSR knockout (Casr^−/−;Gcm2^−/−) mice weighing 22-27 grams (upper panel) or male Sprague-Dawley rats weighing 220-275 grams (lower panel) were allowed free access to water and food prior to experimentation. The animals were exposed to an overdose of isofluorane and the ileum was removed. The ileum was then cut into 4 cm long sections and each section was placed in EDTA (20 mM) to isolate individual villi for 20 minutes at 37° C. After this digestion period the villi were placed in a HEPES-Ringer Solution that was bubbled with 100% O2 and were kept in this solution at 4° C. until use. All mice were generated at Yale University from a breeding colony. Male Sprague-Dawley rats were purchased from Charles River Laboratories Inc. (Wilmington, Mass.). […]\nFollowing isolation individual villi were placed on coverslips and loaded with the calcium indicator dye FLUO4-AM (10 μM) (Invitrogen, Oregon USA) for 15 minutes. […] Images were recorded for 20-30 minutes using DIC optics at 60× Magnification with a Cooled CCD camera and Metamorph Image acquisition and analysis software.\nThe increase in intracellular Ca^2+ is plotted as arbitrary fluorescent units (AFU) with higher numbers of AFU representing an increase in intracellular Ca^2+. The data for each villi with a minimum of 7 cells per villi were then pooled and recorded. […]"}, "serum total calcium": {"tested_on": "serum total calcium", "test": "Serum total calcium in cutaneous wound study", "assay_type": "in vivo, mouse", "conditions": "Compound B 3 mg/kg daily, female balb/c mice; vehicle 10.2-10.9 mg/dL"}, "[1]": {"test": "Plasma level of calcimimetic in cutaneous wound study", "assay_type": "in vivo, mouse", "conditions": "Compound B 3 mg/kg daily, female balb/c mice, over the course of the study"}, "[2]": {"tested_on": "wound injury RNA biomarkers (wound tissue)", "test": "Wound injury RNA biomarkers by quantitative PCR in full-thickness cutaneous wound injury model", "assay_type": "in vivo, mouse", "conditions": "3 mg/kg, drug over vehicle, n=5", "protocol": "See Zoog S J et al. Cytometry A. (2009) March; 75(3): 189-98. The impact of calcimimetic treatment on gene mRNA biomarkers was assessed by quantitative PCR. For wound injury RNA biomarker exploration, female balb/c mice were randomly divided and treated with Compound B (3 mg/kg, n=5) or vehicle (20% Captisol in water, n=5) the day before cutaneous wounding and each subsequent day after until the termination of the studies. All mice received a 3 mm diameter full-thickness punch wound on day zero. On day 1 and day 3 post-injury, a 6 mm diameter skin biopsy was made over the original 3 mm wound and the wound tissue collected for RNA analysis. RNA was isolated using the Trizol reagent (Invitrogen) following manufacturer's instruction. 10 ng of total RNA was added to a single well at the final volume of 10 ul in 1×ABI (Applied Biosystems) Taqman qRT-PCR mixture and run on an ABI 7900 HT Real Time PCR system. For data analysis, the gene expression profile of each sample was first determined based on a control gene, Hprt1, using ABI SDS2.1 software. The signal of each sample was normalized further with Actb, Gapdh, Hprt1, and Rpl27. The biomarkers of wound injury, inflammation and repair that were dynamically affected by Compound B on day 1 and day 3 compared to vehicle control are shown in Table 2. Calcimimetic Compound B affected inflammatory genes, and genes involved in remodeling and repair. Specifically, key inflammatory cytokines such as IL-1a and TNF that may promote cell death were affected by Compound B. Genes involved in inflammation and repair that were affected included: tryptase, TIMP-3, and MMP13. Genes involved in promoting cell survival included: VEGFa, TGFb1, eNOS, and PDGFRb. Immune cell related genes included: M-CSF, TLR-7 and CD3. Other relevant genes included: ITGA3 and PRG-1. […] Table 2 represents the fold increase of drug-induced quantitative change in the gene over vehicle as determined by PCR analysis (n=5 in each drug or vehicle treated cohort)."}},
  "data": [
    {"smiles": "COc1cccc([C@@H](C)NCCCc2ccccc2Cl)c1", "note": "[Compound A, 3-(2-chlorophenyl)-N-((1R)-1-(3-(methyloxy)phenyl)ethyl)-1-propanamine]", "values": [
      {"measurement": "change in intracellular calcium following exposure to 100% N2", "setting": "colonic crypts", "value": "no increase in calcium"},
      {"measurement": "cellular uptake of Trypan Blue", "setting": "ileal villi", "value": "prevented uptake of Trypan Blue"},
      {"measurement": "change in intracellular calcium following exposure to 100% N2", "setting": "isolated ileal villi", "value": "no increase in calcium"}
    ]},
    {"smiles": "COc1ccc(CNC(C)c2ccccc2)cc1-c1ccc(C(F)(F)F)cc1", "note": "(centres unmarked) [Compound B, N-((6-(methyloxy)-4′-(trifluoromethyl)-1,1′-biphenyl-3-yl)methyl)-1-phenylethanamine]", "values": [
      {"measurement": "serum total calcium level", "setting": "serum total calcium", "value": "7.21 to 7.9", "unit": "mg/dL"},
      {"measurement": "average plasma level", "setting": "[1]", "value": "20 to 36", "unit": "ng/mL"},
      {"measurement": "Fold Increase (C/V) CD3 RNA", "setting": "[2]; Day 1 post-injury", "value": 2.90, "unit": "fold"},
      {"measurement": "Fold Increase (C/V) IL-1a RNA", "setting": "[2]; Day 1 post-injury", "value": 1.78, "unit": "fold"},
      {"measurement": "Fold Increase (C/V) ITGA3 RNA", "setting": "[2]; Day 1 post-injury", "value": 4.89, "unit": "fold"},
      {"measurement": "Fold Increase (C/V) M-CSF RNA", "setting": "[2]; Day 1 post-injury", "value": 2.13, "unit": "fold"},
      {"measurement": "Fold Increase (C/V) MMP13 RNA", "setting": "[2]; Day 1 post-injury", "value": 2.78, "unit": "fold"},
      {"measurement": "Fold Increase (C/V) PDGFRb(CD140) RNA", "setting": "[2]; Day 1 post-injury", "value": 0.67, "unit": "fold"},
      {"measurement": "Fold Increase (C/V) PRG-1 RNA", "setting": "[2]; Day 1 post-injury", "value": 3.03, "unit": "fold"},
      {"measurement": "Fold Increase (C/V) TGFB1 RNA", "setting": "[2]; Day 1 post-injury", "value": 4.17, "unit": "fold"},
      {"measurement": "Fold Increase (C/V) TIMP-3 RNA", "setting": "[2]; Day 1 post-injury", "value": 4.48, "unit": "fold"},
      {"measurement": "Fold Increase (C/V) TLR-7 RNA", "setting": "[2]; Day 1 post-injury", "value": 2.20, "unit": "fold"},
      {"measurement": "Fold Increase (C/V) TNFR(p75) RNA", "setting": "[2]; Day 1 post-injury", "value": 1.62, "unit": "fold"},
      {"measurement": "Fold Increase (C/V) TNFalpha RNA", "setting": "[2]; Day 1 post-injury", "value": 1.26, "unit": "fold"},
      {"measurement": "Fold Increase (C/V) Tryptase b2 (MCP-6) RNA", "setting": "[2]; Day 1 post-injury", "value": 1.02, "unit": "fold"},
      {"measurement": "Fold Increase (C/V) VEGFa RNA", "setting": "[2]; Day 1 post-injury", "value": 1.53, "unit": "fold"},
      {"measurement": "Fold Increase (C/V) eNOS RNA", "setting": "[2]; Day 1 post-injury", "value": 5.41, "unit": "fold"},
      {"measurement": "Fold Increase (C/V) CD3 RNA", "setting": "[2]; Day 3 post-injury", "value": 0.88, "unit": "fold"},
      {"measurement": "Fold Increase (C/V) IL-1a RNA", "setting": "[2]; Day 3 post-injury", "value": 3.44, "unit": "fold"},
      {"measurement": "Fold Increase (C/V) ITGA3 RNA", "setting": "[2]; Day 3 post-injury", "value": 1.78, "unit": "fold"},
      {"measurement": "Fold Increase (C/V) M-CSF RNA", "setting": "[2]; Day 3 post-injury", "value": 2.13, "unit": "fold"},
      {"measurement": "Fold Increase (C/V) MMP13 RNA", "setting": "[2]; Day 3 post-injury", "value": 1.90, "unit": "fold"},
      {"measurement": "Fold Increase (C/V) PDGFRb(CD140) RNA", "setting": "[2]; Day 3 post-injury", "value": 1.42, "unit": "fold"},
      {"measurement": "Fold Increase (C/V) PRG-1 RNA", "setting": "[2]; Day 3 post-injury", "value": 4.12, "unit": "fold"},
      {"measurement": "Fold Increase (C/V) TGFB1 RNA", "setting": "[2]; Day 3 post-injury", "value": 0.92, "unit": "fold"},
      {"measurement": "Fold Increase (C/V) TIMP-3 RNA", "setting": "[2]; Day 3 post-injury", "value": 1.62, "unit": "fold"},
      {"measurement": "Fold Increase (C/V) TLR-7 RNA", "setting": "[2]; Day 3 post-injury", "value": 2.39, "unit": "fold"},
      {"measurement": "Fold Increase (C/V) TNFR(p75) RNA", "setting": "[2]; Day 3 post-injury", "value": 1.62, "unit": "fold"},
      {"measurement": "Fold Increase (C/V) TNFalpha RNA", "setting": "[2]; Day 3 post-injury", "value": 3.83, "unit": "fold"},
      {"measurement": "Fold Increase (C/V) Tryptase b2 (MCP-6) RNA", "setting": "[2]; Day 3 post-injury", "value": 0.95, "unit": "fold"},
      {"measurement": "Fold Increase (C/V) VEGFa RNA", "setting": "[2]; Day 3 post-injury", "value": 0.61, "unit": "fold"},
      {"measurement": "Fold Increase (C/V) eNOS RNA", "setting": "[2]; Day 3 post-injury", "value": 0.46, "unit": "fold"}
    ]}
  ]
}
